Source: patent US20140005163A1 (NOVARTIS AG, priority 2010, published 2014)

Assays:
PI3K beta = target: T1, PI3K beta (Homo sapiens, UniProt P42338); assay: PI3K beta kinase assay (Kinase-Glo luminescence); format: biochemical
T1 construct: for the full-length p110-b subunit are generated and fused by overlapping PCR; p85(iSH2) fusion partner (see partner chain) (N); His tag (C); made in house; host or cells: baculovirus; Tn5 (Trichoplusia ni) or TiniPro insect cells
Outline: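 Kinase-Glo luminescence after a 60 min room-temperature reaction gives remaining ATP. The reaction holds 25 nM p85(iSH2)-p110β full-length His-tagged construct, 1 μM ATP, 10 μg/mL PI, and eight compound concentrations at 0.45% DMSO final. IC50 values come from a four-parameter logistic fit.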

PI3K gamma = target: T2, PI3K gamma (Homo sapiens, UniProt P48736); assay: PI3K gamma kinase assay (Kinase-Glo luminescence); format: biochemical
T2 construct: His tag (C); made in house; host or cells: baculovirus (pVL1393); Tn5 or TiniPro insect cells; construct from Roger Williams lab, MRC LMB
Outline: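 PI3Kγ (150 nM) reaction run 120 min at room temperature with phosphatidylinositol substrate (10 μg/mL) and ATP (1 μM) in Tris pH 7.5 buffer containing MgCl2, NaCl, CHAPS and DTT. Remaining ATP detected by Kinase-Glo luminescence; 8 concentrations per compound, IC50 from 4-parameter curve fitting.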

[1] = system: PKB Ser473 phosphorylation in Rat1-myr-HA-p110 beta cells; assay: Reverse protein array assay, PKB Ser473 phosphorylation in Rat1-myr-p110 beta cells; format: cell-based; settings: 0.5 h, pAkt Ser473, 30 minutes incubation, read-out: p-PKB IC50
Outline: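 After at least 20 h of culture, the p110 isoform-transfected Rat1 lines receive compound in an 8-step dilution series, keeping DMSO at 0.2%, for 30 minutes. Cells are then lysed and lysates arrayed on chips for fluorescence detection of Ser473-phosphorylated PKB.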

T1 sequence (P42338 with tags, fused parts or gaps limits assumed): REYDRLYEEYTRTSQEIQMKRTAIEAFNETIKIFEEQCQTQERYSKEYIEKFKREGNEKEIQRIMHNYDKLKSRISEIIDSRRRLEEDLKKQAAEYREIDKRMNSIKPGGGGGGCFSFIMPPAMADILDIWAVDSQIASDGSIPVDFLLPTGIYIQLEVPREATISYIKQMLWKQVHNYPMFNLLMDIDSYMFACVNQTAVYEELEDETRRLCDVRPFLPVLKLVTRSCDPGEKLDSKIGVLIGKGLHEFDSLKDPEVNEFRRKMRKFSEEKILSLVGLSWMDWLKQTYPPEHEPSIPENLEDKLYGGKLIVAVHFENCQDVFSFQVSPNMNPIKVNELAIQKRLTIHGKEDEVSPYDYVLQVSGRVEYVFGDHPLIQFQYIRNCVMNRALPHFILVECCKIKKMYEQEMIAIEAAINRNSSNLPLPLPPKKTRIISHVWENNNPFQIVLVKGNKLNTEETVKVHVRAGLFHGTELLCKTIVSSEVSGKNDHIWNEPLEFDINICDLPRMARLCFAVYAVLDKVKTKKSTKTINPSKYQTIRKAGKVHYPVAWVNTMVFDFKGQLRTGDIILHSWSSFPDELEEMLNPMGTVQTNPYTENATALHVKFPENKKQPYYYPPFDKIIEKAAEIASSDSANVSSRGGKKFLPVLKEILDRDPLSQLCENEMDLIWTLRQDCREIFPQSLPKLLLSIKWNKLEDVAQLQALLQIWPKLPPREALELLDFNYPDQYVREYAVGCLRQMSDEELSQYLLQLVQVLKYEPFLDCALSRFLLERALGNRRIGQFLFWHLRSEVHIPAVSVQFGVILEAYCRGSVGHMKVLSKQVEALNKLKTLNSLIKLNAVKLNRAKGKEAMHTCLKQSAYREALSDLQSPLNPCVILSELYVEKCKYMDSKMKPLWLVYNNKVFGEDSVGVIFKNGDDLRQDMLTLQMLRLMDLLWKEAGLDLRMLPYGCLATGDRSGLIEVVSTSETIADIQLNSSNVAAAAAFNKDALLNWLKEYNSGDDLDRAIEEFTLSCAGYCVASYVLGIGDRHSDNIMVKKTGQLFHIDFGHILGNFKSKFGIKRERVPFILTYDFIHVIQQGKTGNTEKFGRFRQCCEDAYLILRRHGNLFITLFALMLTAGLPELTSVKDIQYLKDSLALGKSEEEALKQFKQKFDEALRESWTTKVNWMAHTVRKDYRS
T2 sequence (P48736 144-1102 limits assumed): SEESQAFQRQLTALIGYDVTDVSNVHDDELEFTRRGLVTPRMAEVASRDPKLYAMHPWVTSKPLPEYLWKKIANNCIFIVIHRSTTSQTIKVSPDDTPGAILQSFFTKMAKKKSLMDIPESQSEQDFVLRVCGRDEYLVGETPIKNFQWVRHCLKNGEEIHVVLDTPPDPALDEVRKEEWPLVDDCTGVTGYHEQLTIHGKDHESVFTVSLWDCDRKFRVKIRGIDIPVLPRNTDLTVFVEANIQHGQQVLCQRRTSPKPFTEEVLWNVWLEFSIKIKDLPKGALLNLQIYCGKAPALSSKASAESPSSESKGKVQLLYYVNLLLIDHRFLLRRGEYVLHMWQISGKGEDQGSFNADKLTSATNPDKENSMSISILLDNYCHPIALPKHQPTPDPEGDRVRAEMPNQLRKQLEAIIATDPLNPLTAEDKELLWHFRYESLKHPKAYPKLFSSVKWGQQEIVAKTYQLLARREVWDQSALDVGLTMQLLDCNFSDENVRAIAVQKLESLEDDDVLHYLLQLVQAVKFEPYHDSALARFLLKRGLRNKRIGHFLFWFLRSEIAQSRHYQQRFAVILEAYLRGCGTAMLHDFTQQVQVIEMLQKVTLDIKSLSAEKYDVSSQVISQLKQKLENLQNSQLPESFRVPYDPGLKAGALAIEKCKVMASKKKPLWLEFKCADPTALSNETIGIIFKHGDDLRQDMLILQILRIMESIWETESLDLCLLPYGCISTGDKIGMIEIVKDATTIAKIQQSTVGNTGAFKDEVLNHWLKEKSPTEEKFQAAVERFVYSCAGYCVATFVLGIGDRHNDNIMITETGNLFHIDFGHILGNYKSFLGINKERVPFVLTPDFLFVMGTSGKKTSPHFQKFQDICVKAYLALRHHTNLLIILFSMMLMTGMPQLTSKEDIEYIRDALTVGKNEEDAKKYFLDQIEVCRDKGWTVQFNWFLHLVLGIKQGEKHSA

Row | Structure (SMILES) | IC50 (PI3K beta) [µM] | IC50 (PI3K gamma) [µM] | IC50 [1] [µM]
1 | CN(C)c1ccc(-c2ccc3ncc4c(c3c2)n(-c2cn(C)nc2Cl)c(=O)n4C)cn1 [Example 4.9, 1-(3-Chloro-1-methyl-1H-pyrazol-4-yl)-8-(6-dimethylamino-pyridin-3-yl)-3-methyl-1,3-dihydro-imidazo[4,5-c]quinolin-2-one] | 0.059 | 0.15 | 0.006
2 | CNS(=O)(=O)c1cccc(-c2ccc3ncc4c(c3c2)n(-c2cn(C)nc2C)c(=O)n4C)c1 [Example 39, 3-[1-(1,3-Dimethyl-1H-pyrazol-4-yl)-3-methyl-2-oxo-2,3-dihydro-1H-imidazo[4,5-c]quinolin-8-yl]-N-methyl-benzenesulfonamide] | 0.013 | 0.075 | 0.064
3 | Cc1nn(C)cc1-n1c(=O)n(C)c2cnc3ccc(-c4cccc(NS(C)(=O)=O)c4)cc3c21 [Example 47, N-{3-[1-(1,3-dimethyl-1H-pyrazol-4-yl)-3-methyl-2-oxo-2,3-dihydro-1H-imidazo[4,5-c]quinolin-8-yl]-phenyl}-methanesulfonamide] | 0.811 | 0.701 | 0.196
4 | Cc1nn(C)cc1-n1c(=O)n(C)c2cnc3ccc(-c4ccc(-c5ncc[nH]5)cc4)cc3c21 [Example 77, 1-(1,3-Dimethyl-1H-pyrazol-4-yl)-8-[4-(1H-imidazol-2-yl)-phenyl]-3-methyl-1,3-dihydro-imidazo[4,5-c]quinolin-2-one] | 0.024 | 0.075 | 0.008
5 | Cc1nn(C)cc1-n1c(=S)n(C)c2cnc3ccc(-c4cccnc4)cc3c21 [Example 128.1, 1-(1,3-Dimethyl-1H-pyrazol-4-yl)-3-methyl-8-pyridin-3-yl-1,3-dihydro-imidazo[4,5-c]quinoline-2-thione] | 0.035 | 0.142 | 0.027
6 | COc1ccc(-c2ccc3ncc4c(c3c2)n(-c2cn(C)nc2C)c(=S)n4C)cc1OC [Example 128.2, 8-(3,4-Dimethoxy-phenyl)-1-(1,3-dimethyl-1H-pyrazol-4-yl)-3-methyl-1,3-dihydro-imidazo[4,5-c]quinoline-2-thione] | 0.017 | 0.117 | 0.006
7 | CCn1cc(-n2c(=O)n(C)c3cnc4ccc(-c5cncc(C(C)(C)C#N)c5)cc4c32)c(C)n1 [Example 220.2, 2-{5-[1-(1-Ethyl-3-methyl-1H-pyrazol-4-yl)-3-methyl-2-oxo-2,3-dihydro-1H-imidazo[4,5-c]quinolin-8-yl]-pyridin-3-yl}-2-methyl-propionitrile] | 0.041 | – | 0.032
8 | CCNC(=O)c1cc(-c2ccc3ncc4c(c3c2)n(-c2cn(C(C)C)nc2C)c(=O)n4C)cnc1N [Example 227, 2-Amino-N-ethyl-5-[1-(1-isopropyl-3-methyl-1H-pyrazol-4-yl)-3-methyl-2-oxo-2,3-dihydro-1H-imidazo[4,5-c]quinolin-8-yl]-nicotinamide] | 0.287 | – | 0.22
9 | COc1ncc(-c2ccc3ncc4c(c3c2)n(-c2cc(C)nn2C)c(=O)n4C)c(OC)n1 [Example 234.4, 8-(2,4-Dimethoxy-pyrimidin-5-yl)-1-(2,5-dimethyl-2H-pyrazol-3-yl)-3-methyl-1,3-dihydro-imidazo[4,5-c]quinolin-2-one] | 0.359 | – | 0.059
10 | CNc1ccc(-c2ccc3ncc4c(c3c2)n(-c2cn(C(C)C)nc2C)c(=S)n4C)cn1 [Example 241, 1-(1-isopropyl-3-methyl-1H-pyrazol-4-yl)-3-methyl-8-(6-(methylamino)pyridin-3-yl)-1H-imidazo[4,5-c]quinoline-2(3H)-thione] | 0.184 | – | < 0.005
11 | CCn1cc(-n2c(=O)n(C)c3cnc4ccc(-c5ccc(OC)c(OC)c5)nc4c32)c(C)n1 [Example 254, 8-(3,4-Dimethoxy-phenyl)-1-(1-ethyl-3-methyl-1H-pyrazol-4-yl)-3-methyl-1,3-dihydro-1,3,5,9-tetraaza-cyclopenta[a]naphthalen-2-one] | 0.062 | 0.145 | 0.026
